{
  "source": "patent US7507716B2",
  "about": "“Method for treating pain with prolactin antagonists” (Board of Regents, The University of Texas System, priority 2005, dated 2009)",
  "molecules": {"B1": {"name": "PRL: Ovine PRL [oPRL-21, BIO] provided by NHPP; prolactin polypeptide hormone (protein, UniProt P01240 31-229, looked up)", "Prolactin": "TPVCPNGPGNCQVSLRDLFDRAVMVSHYIHNLSSEMFNEFDKRYAQGKGFITMALNSCHTSSLPTPEDKEQAQQTHHEVLMSLILGLLRSWNDPLYHLVTEVRGMKGVPDAILSRAIEIEEENKRLLEGMEMIFGQVIPGAKETEPYPVWSGLPSLQTKDEDARHSAFYNLLHCLRRDSSKIDTYLKLLNCRIIYNNNC"}},
  "key": {"PRL-R": {"system": "PRL-R", "assay": "Western blot of PRL-R isoforms in TG of OVX rats", "assay_type": "in vivo, rat", "conditions": "TG of OVX rats, 2, 20 or 80 μg/kg s.c. daily for 10 days", "excerpt": "There are two isoforms of the rat PRL receptor (PRL-R) that differ in the length of their cytoplasmic tail and are therefore termed the long and short isoforms. […] Moreover, the differential expression of these receptors is regulated by estrogen in certain tissues (Sakaguchi et al., 1994; Pi et al., 2003). To determine whether estrogen regulates the expression of the PRL-R in the female TG, protein extracts prepared from TG of OVX rats and subjected to Western blot analysis using an anti-PRL-R antibody that recognizes both the long and the short PRL-R isoforms. FIG. 3A depicts a representative immunoblot of this experiment. The antibody recognized two bands migrating at approximately 100 KDa and 40 KDa corresponding to the long and short PRL-R isoforms respectively. Blots were stripped and probed with an antibody against beta-actin to normalize for loading differences. […] The data are presented as mean±SEM (n=4/group, *=p<0.05 and **=p<0.01; one-way ANOVA with Bonferroni's post hoc test).\nAt the end of the 10th day, animals were used for behavioral experiments or sacrificed by decapitation and the TG of each individual animal were harvested. Harvested tissue was used for RNA isolation, total protein isolation, or for preparing primary cultures of TG neurons. […]"}, "TRPV1": {"system": "TRPV1", "assay": "TRPV1 phosphorylation (32P incorporation, immunoprecipitation)", "assay_type": "cell-based, rat", "conditions": "PRL 40 nM 10 min", "description": "The activity of TRPV1 is dependent upon its phosphorylation status. Hyperphosphorylation of TRPV1 is associated with increased responsiveness to capsaicin (Bhave et al., 2003; Mohapatra and Nau, 2005; Zhang et al., 2005; Mandadi et al., 2006). Since PRL-signaling through PRL-R is known to activate various intracellular kinases pathways, the effect of PRL on TRPV1 phosphorylation status in cultured TG neurons was assessed. Cultured TG neurons were incubated with PRL (40 nM) or vehicle for 10 min in the presence of radioactive phosphate (P^32-orthophosphate). Extracts of the radiolabelled TG cultures were prepared and subjected to immunoprecipated using an antibody that specifically recognizes TRPV1, and the resulting immune complexes were resolved by SDS-PAGE and prepared for immunoblot analysis. The blots were subjected to autoradiography to visualize radiolabelled P^32-TRPV1 and to determine its relative abundance in the presence of PRL. The resolved protein was then immunoblotted using an antibody raised against TRPV1 to ensure that the observed differences in radiolabelled TRPV1 abundance are not due to technical errors (e.g., unequal gel loading). […]\nAutoradiography and Western blot results were scanned and quantified using NIH Image 1.62. […]"}},
  "data": [
    {"molecule": "C[C@]12CC[C@@H]3c4ccc(O)cc4CC[C@H]3[C@@H]1CC[C@@H]2O", "note": "[estradiol, 17-β-estradiol]", "values": [
      {"measurement": "expression of the long form of PRL-R", "setting": "PRL-R", "result": "increases expression of the long form of PRL-R in the TG of OVX rats in a dose-dependent manner"},
      {"measurement": "expression of the short form of the PRL-R", "setting": "PRL-R", "result": "does not appear to significantly affect expression of the short form of the PRL-R"}
    ]},
    {"molecule": "B1", "values": [
      {"measurement": "TRPV1 phosphorylation status", "setting": "TRPV1; TG neurons from OVX rats", "result": "no observable effect"},
      {"measurement": "phosphorylation state of TRPV1", "setting": "TRPV1; neurons from intact female rats", "result": "150±13", "unit": "%"}
    ]}
  ]
}
